Experimental data from PMC7065771, “Dietary supplementation of recombinant antimicrobial peptide Epinephelus lanceolatus piscidin improves growth performance and immune response in Gallus gallus domesticus” (PLoS ONE, 2020).

How the values were obtained:
[1] = tested on: Interleukin-6; assay: Serum ELISA after dietary supplementation; format: in vivo, Gallus gallus domesticus; settings: dietary supplementation 35 days, between groups
Source text: (§1) A total of 189 male or female 2-day-old G. g. domesticus were randomly assigned to seven dietary treatment groups, including rEP (0.75, 1.5, 3.0, 6.0 and 12%), spiraline-A (Juily Pharmaceutical Co., LTD. San Sia, Taipei Hsien, Taiwan), and basal diet groups. Each treatment group consisted of one cage with twenty-seven G. g. domesticus. The composition of the fodder is presented in S1b–S1d Table. The animals were allowed ad libitum access to fodder and water for the duration of the trial, beginning from 3 days of age. The total time of feeding was 35 days. The G. g. domesticus were maintained in a cage (animal container) with a constant environment (28.9–37.8°C, 12/12 h light-dark cycle). rEP fodder and fecal sewage were not directly discharged to the outside.
(§2) Body weight and survival rate were monitored daily during the experimental period. The weight gain, feed efficiency (FE), protein efficiency ratio (PER), and survival percentage were calculated. After 35 days of treatment, the G. g. domesticus were euthanized, blood samples were collected and serum was obtained by centrifugation (3000 ×g for 15 min at 4°C). Serum was kept at -80°C until analysis. Enzyme-linked immunosorbent assay (ELISA) was performed in accordance with the manufacturer’s standard procedures to determine the levels of immunological factors, including TNF-α, Interleukin-1β, Interleukin-6, Interleukin-10, Lysozyme, Immunoglobin-G (IgG), and Interferon-γ. Chicken serum samples were analyzed with ELISA kits from ABclonal Inc. (Woburn, MA, USA). After the reaction was completed, the optical density (OD) was measured at 450 nm on a microplate reader (SpectraMax® i3, Molecular Devices, Lagerhausstrasse, Wals, Austria).

[2] = tested on: Lysozyme; assay: Serum ELISA after dietary supplementation; format: in vivo, Gallus gallus domesticus; settings: dietary supplementation 35 days, between groups
Source text: as §1, §2

[3] = tested on: TNF-α; assay: Serum ELISA after dietary supplementation; format: in vivo, Gallus gallus domesticus; settings: dietary supplementation 35 days, between groups
Source text: as §1, §2

[4] = tested on: Interleukin-1β; assay: Serum ELISA after dietary supplementation; format: in vivo, Gallus gallus domesticus; settings: dietary supplementation 35 days, between groups
Source text: as §1, §2

[5] = tested on: Interleukin-10; assay: Serum ELISA after dietary supplementation; format: in vivo, Gallus gallus domesticus; settings: rEP-supplemented group, 35 days, compared to control group (P = 0.0341), not different than the antibiotic group
Source text: as §1, §2

[6] = tested on: Interferon-γ; assay: Serum ELISA after dietary supplementation; format: in vivo, Gallus gallus domesticus; settings: 1.5% in diet, 35 days, compared to antibiotic group (P = 0.0043) and control group (P = 0.0073)
Source text: as §1, §2

[7] = tested on: Riemerella anatipestifer (RA3); assay: Inhibition zone (disk diffusion) assay; format: cell-based; settings: disk paper 16 h at 37°C, shake-flask supernatant 120 h after induction
Description: (§3) All assays were performed in triplicate.
(§4) The antimicrobial activity of rEP from flask cultures was evaluated by determining its ability to prevent growth of Gram-positive and Gram-negative bacteria with a disk diffusion assay. […] The most susceptible pathogens were R. anatipestifer (CFC27) and R. anatipestifer (CFC437) (Table 3a). Next, we investigated the thermostability of flask-fermented rEP with regard to its toxicity toward S. aureus (BCRC 10780), E. coli (BCRC 10675) and P. aeruginosa (ATCC 19660). Empty vector with no insert in P. pastoris was used as a control. Thermostability was measured by disk diffusion assay after cultures were incubated for 5 min at 40, 60, 80, or 100°C (Table 3b).

[8] = tested on: Pseudomonas aeruginosa (ATCC 19660); assay: Inhibition zone (disk diffusion) assay; format: cell-based; settings: then disk diffusion 16 h at 37°C
Description: as §3, §4

[9] = tested on: Staphylococcus aureus (BCRC 10780); assay: Inhibition zone (disk diffusion) assay; format: cell-based; settings: then disk diffusion 16 h at 37°C
Description: as §3, §4

[10] = tested on: Riemerella anatipestifer (CFC437); assay: Inhibition zone (disk diffusion) assay; format: cell-based; settings: disk paper 16 h at 37°C, shake-flask supernatant 120 h after induction
Description: as §3, §4

[11] = tested on: Escherichia coli (BCRC 10675); assay: Inhibition zone (disk diffusion) assay; format: cell-based; settings: then disk diffusion 16 h at 37°C
Description: as §3, §4

[12] = tested on: Riemerella anatipestifer (CFC27); assay: Inhibition zone (disk diffusion) assay; format: cell-based; settings: disk paper 16 h at 37°C, shake-flask supernatant 120 h after induction
Description: as §3, §4

[13] = tested on: K. oxytoca; assay: Inhibition zone assay, flask culture supernatant; format: cell-based, Klebsiella oxytoca; settings: flask culture supernatant after 5 days of methanol induction
Description: as §3
Fig 4 Antimicrobial activity of rEP produced in P. pastoris by flask and fermenter methods. (a) rEP concentration in the yeast culture supernatant before and after induction with methanol for 24 h to 120 h in flask culture. […] The marker “-” represents Gram-negative; “+” represents Gram-positive. (b) The antibacterial activity of rEP produced by the fermenter method. Yeast were induced with methanol from 24 h to 120 h in a fermenter.

[14] = tested on: intestinal microflora; assay: Intestinal microflora in duodenum; format: in vivo, Gallus gallus domesticus; settings: 1.5% rEP in diet, compared to spiraline A and basal diet groups (S3e Fig)
Description: The growth promoting action of EP may be related to intestinal absorption and as such, small villus morphology was evaluated in a previous study. […] Moreover, growth enhancement has been observed in other reports. For example, feeding mice with PR39 peptide (4.7 kDa proline-rich AMP)-expressing Lactobacillus casei caused jejunum and duodenum villus height in the intestinal villi to increase. Use of recombinant porcine β-defensin 2 (rpBD2) as a feed additive for weaned piglets also produced increases in intestinal villus height of the duodenum and jejunum. Additionally, birds fed with AMP-A3 diet had increased villus height of the duodenum, jejunum and ileum. […] Fig). […] Supplementary file pone.0230021.s003.TIF: S3 Fig Effects of orally administered a rEP on posture, body weight, intestinal morphology, and gut flora. (a) After 28 days of feeding the 1.5% rEP-receiving chickens were larger than the spiraline A and basal diet controls. (b) The effects of feeding 1.5% rEP on body weight. (c) Representative picture of hematoxylin and eosin staining of intestinal villi and crypts. (d) The intestinal villus length and crypt depth were measured. (e) The effects of orally administrated the spiraline A, basal diet, and 1.5% rEP on intestinal microflora in G. g. domesticus. Relative proportions of bacterial families are shown. […]

[15] = thermostability: flask supernatant incubated 5 min at 40°C
[16] = thermostability: flask supernatant incubated 5 min at 60°C
[17] = thermostability: flask supernatant incubated 5 min at 80°C

“EFFIFHIIKGLFHAGRMIHGLVNRRRHRHHHHHH [rEP, recombinant His-tagged Epinephelus lanceolatus piscidin from Pichia pastoris, used as crude culture supernatant or spray-dried powder]” was tested, and the “Serum IL-6 level” value [1] was “No significant changes”, the “Serum Lysozyme (Lyz) level” value [2] was “No significant changes” and the “Serum TNF-α level” value [3] was “No significant changes”. For the same sequence, the “Serum IL-1β level” value [4] was “No significant changes”, the “Serum IL-10 level” value [5] was “significantly higher” and the “Serum IFN-γ level” value [6] was “significantly increased”. The Inhibition zone diameter ([7]; first of two values printed) was 10, 10 mm, the Inhibition zone diameter ([7]; second of two values printed) was 10, 10 mm and the “Inhibition zone diameter after heat treatment” value [8, 15] was 10.1±0.3 mm. For the same sequence, the “Inhibition zone diameter after heat treatment” value [8, 16] was 9.5±0.2 mm, the “Inhibition zone diameter after heat treatment” value [9, 15] was 10.6±1.5 mm and the “Inhibition zone diameter after heat treatment” value [9, 16] was 9.1±0.7 mm. For the same sequence, the “Inhibition zone diameter after heat treatment” value [9, 17] was 9.3±0.5 mm, the “Inhibition zone diameter after heat treatment” value ([9]; thermostability: flask supernatant incubated 5 min at 100°C) was 9.3±0.5 mm and the Inhibition zone diameter ([10]; first of two values printed) was 11 mm. The Inhibition zone diameter ([10]; second of two values printed) was 13 mm, the “Inhibition zone diameter after heat treatment” value [11, 15] was 9.0±1.0 mm and the “Inhibition zone diameter after heat treatment” value [11, 16] was 9.0±1.0 mm. The “Inhibition zone diameter after heat treatment” value [11, 17] was 8.6±0.5 mm, the Inhibition zone diameter ([12]; first of two values printed) was 12 mm and the Inhibition zone diameter ([12]; second of two values printed) was 14 mm. For the same sequence, the Inhibition zone [13] was “large inhibition zones”, the “Numbers of Enterobacteriaceae and Staphylococcaceae in duodenum” value [14] was “decreasing” and the “Numbers of Lactobacillaceae and Entercoccaceae in duodenum” value [14] was “significantly increased”.
